Conditions: human gut metagenome, 24 h, 2 µM
Note: call rule not given here.

Bacterial Biotransformation | Structure (SMILES)
Compound NOT metabolized | CO[C@]12C[C@@H](COC(=O)c3cncc(Br)c3)CN(C)[C@@H]1Cc1cn(C)c3cccc2c13 [NICERGOLINE]
Compound metabolized | CC(=O)OCC(=O)[C@@]1(O)[C@@H](C)C[C@H]2[C@@H]3CCC4=CC(=O)C=C[C@]4(C)[C@@]3(F)[C@@H](O)C[C@@]21C [BETAMETHASONE ACETATE]

Assay: (§1) The drug is tested on WLS-170 corresponding to human gut metagenome with ENA study accession number: PRJEB37062 and ENA sample accession number: ERS12561762 for biotransformation under anaerobic condition. The drug concentrations were measured over 9 timepoints collected between 0 and 24 hours of incubation by liquid-chromatography-coupled mass spectrometry (LC–MS)
Conditions: 2 µM

Bacterial Biotransformation | Structure (SMILES)
Compound NOT metabolized | CO[C@]12C[C@@H](COC(=O)c3cncc(Br)c3)CN(C)[C@@H]1Cc1cn(C)c3cccc2c13 [NICERGOLINE]
Compound metabolized | CC(=O)OCC(=O)[C@@]1(O)[C@@H](C)C[C@H]2[C@@H]3CCC4=CC(=O)C=C[C@]4(C)[C@@]3(F)[C@@H](O)C[C@@]21C [BETAMETHASONE ACETATE]

Conditions: human gut metagenome, 24 h, 2 µM
Remark: another data set of the same source

Bacterial Biotransformation | Structure (SMILES)
Compound NOT metabolized | CO[C@]12C[C@@H](COC(=O)c3cncc(Br)c3)CN(C)[C@@H]1Cc1cn(C)c3cccc2c13 [NICERGOLINE]
Compound metabolized | CC(=O)OCC(=O)[C@@]1(O)[C@@H](C)C[C@H]2[C@@H]3CCC4=CC(=O)C=C[C@]4(C)[C@@]3(F)[C@@H](O)C[C@@]21C [BETAMETHASONE ACETATE]

Assay: as §1, with “Z-030” for “WLS-170”, “mouse” for “human”, “ERS12561829” for “ERS12561762”
Conditions: 2 µM

Bacterial Biotransformation | Structure (SMILES)
Compound NOT metabolized | CO[C@]12C[C@@H](COC(=O)c3cncc(Br)c3)CN(C)[C@@H]1Cc1cn(C)c3cccc2c13 [NICERGOLINE]
Compound NOT metabolized | CC(=O)OCC(=O)[C@@]1(O)[C@@H](C)C[C@H]2[C@@H]3CCC4=CC(=O)C=C[C@]4(C)[C@@]3(F)[C@@H](O)C[C@@]21C [BETAMETHASONE ACETATE]

Assay: as §1, with “Z-024” for “WLS-170”, “pig” for “human”, “ERS12561823” for “ERS12561762”
Conditions: 2 µM

Bacterial Biotransformation | Structure (SMILES)
Compound metabolized | CO[C@]12C[C@@H](COC(=O)c3cncc(Br)c3)CN(C)[C@@H]1Cc1cn(C)c3cccc2c13 [NICERGOLINE]
Compound metabolized | CC(=O)OCC(=O)[C@@]1(O)[C@@H](C)C[C@H]2[C@@H]3CCC4=CC(=O)C=C[C@]4(C)[C@@]3(F)[C@@H](O)C[C@@]21C [BETAMETHASONE ACETATE]

Assay: as §1, with “Z-001” for “WLS-170”, “mouse” for “human”, “ERS12561801” for “ERS12561762”
Conditions: 2 µM

Bacterial Biotransformation | Structure (SMILES)
Compound metabolized | CO[C@]12C[C@@H](COC(=O)c3cncc(Br)c3)CN(C)[C@@H]1Cc1cn(C)c3cccc2c13 [NICERGOLINE]
Compound metabolized | CC(=O)OCC(=O)[C@@]1(O)[C@@H](C)C[C@H]2[C@@H]3CCC4=CC(=O)C=C[C@]4(C)[C@@]3(F)[C@@H](O)C[C@@]21C [BETAMETHASONE ACETATE]

Conditions: human gut metagenome, 24 h, 2 µM
Remark: another data set of the same source

Bacterial Biotransformation | Structure (SMILES)
Compound metabolized | CO[C@]12C[C@@H](COC(=O)c3cncc(Br)c3)CN(C)[C@@H]1Cc1cn(C)c3cccc2c13 [NICERGOLINE]
Compound metabolized | CC(=O)OCC(=O)[C@@]1(O)[C@@H](C)C[C@H]2[C@@H]3CCC4=CC(=O)C=C[C@]4(C)[C@@]3(F)[C@@H](O)C[C@@]21C [BETAMETHASONE ACETATE]

Assay: as §1, with “Z-002” for “WLS-170”, “rabbit” for “human”, “ERS12561802” for “ERS12561762”
Conditions: 2 µM

Bacterial Biotransformation | Structure (SMILES)
Compound metabolized | CO[C@]12C[C@@H](COC(=O)c3cncc(Br)c3)CN(C)[C@@H]1Cc1cn(C)c3cccc2c13 [NICERGOLINE]
Compound metabolized | CC(=O)OCC(=O)[C@@]1(O)[C@@H](C)C[C@H]2[C@@H]3CCC4=CC(=O)C=C[C@]4(C)[C@@]3(F)[C@@H](O)C[C@@]21C [BETAMETHASONE ACETATE]

Assay: as §1, with “Z-027” for “WLS-170”, “to” for “to human gut”, “ERS12561826” for “ERS12561762”
Conditions: 2 µM

Bacterial Biotransformation | Structure (SMILES)
Compound metabolized | CO[C@]12C[C@@H](COC(=O)c3cncc(Br)c3)CN(C)[C@@H]1Cc1cn(C)c3cccc2c13 [NICERGOLINE]
Compound NOT metabolized | CC(=O)OCC(=O)[C@@]1(O)[C@@H](C)C[C@H]2[C@@H]3CCC4=CC(=O)C=C[C@]4(C)[C@@]3(F)[C@@H](O)C[C@@]21C [BETAMETHASONE ACETATE]

Assay: as §1, with “Z-028” for “WLS-170”, “mouse” for “human”, “ERS12561827” for “ERS12561762”
Conditions: 2 µM

Bacterial Biotransformation | Structure (SMILES)
Compound metabolized | CO[C@]12C[C@@H](COC(=O)c3cncc(Br)c3)CN(C)[C@@H]1Cc1cn(C)c3cccc2c13 [NICERGOLINE]
Compound metabolized | CC(=O)OCC(=O)[C@@]1(O)[C@@H](C)C[C@H]2[C@@H]3CCC4=CC(=O)C=C[C@]4(C)[C@@]3(F)[C@@H](O)C[C@@]21C [BETAMETHASONE ACETATE]

Assay: as §1, with “Z-004” for “WLS-170”, “to” for “to human gut”, “ERS12561804” for “ERS12561762”
Conditions: 2 µM

Bacterial Biotransformation | Structure (SMILES)
Compound metabolized | CO[C@]12C[C@@H](COC(=O)c3cncc(Br)c3)CN(C)[C@@H]1Cc1cn(C)c3cccc2c13 [NICERGOLINE]
Compound NOT metabolized | CC(=O)OCC(=O)[C@@]1(O)[C@@H](C)C[C@H]2[C@@H]3CCC4=CC(=O)C=C[C@]4(C)[C@@]3(F)[C@@H](O)C[C@@]21C [BETAMETHASONE ACETATE]

Assay: as §1, with “Z-010” for “WLS-170”, “to” for “to human gut”, “ERS12561810” for “ERS12561762”
Conditions: 2 µM

Bacterial Biotransformation | Structure (SMILES)
Compound metabolized | CO[C@]12C[C@@H](COC(=O)c3cncc(Br)c3)CN(C)[C@@H]1Cc1cn(C)c3cccc2c13 [NICERGOLINE]
Compound metabolized | CC(=O)OCC(=O)[C@@]1(O)[C@@H](C)C[C@H]2[C@@H]3CCC4=CC(=O)C=C[C@]4(C)[C@@]3(F)[C@@H](O)C[C@@]21C [BETAMETHASONE ACETATE]

Conditions: human gut metagenome, 24 h, 2 µM
Remark: another data set of the same source

Bacterial Biotransformation | Structure (SMILES)
Compound NOT metabolized | CO[C@]12C[C@@H](COC(=O)c3cncc(Br)c3)CN(C)[C@@H]1Cc1cn(C)c3cccc2c13 [NICERGOLINE]
Compound NOT metabolized | CC(=O)OCC(=O)[C@@]1(O)[C@@H](C)C[C@H]2[C@@H]3CCC4=CC(=O)C=C[C@]4(C)[C@@]3(F)[C@@H](O)C[C@@]21C [BETAMETHASONE ACETATE]

Assay: as §1, with “WLS-090” for “WLS-170”, “ERS12561753” for “ERS12561762”
Conditions: 2 µM

Bacterial Biotransformation | Structure (SMILES)
Compound metabolized | CO[C@]12C[C@@H](COC(=O)c3cncc(Br)c3)CN(C)[C@@H]1Cc1cn(C)c3cccc2c13 [NICERGOLINE]
Compound metabolized | CC(=O)OCC(=O)[C@@]1(O)[C@@H](C)C[C@H]2[C@@H]3CCC4=CC(=O)C=C[C@]4(C)[C@@]3(F)[C@@H](O)C[C@@]21C [BETAMETHASONE ACETATE]

Conditions: human gut metagenome, 24 h, 2 µM
Remark: another data set of the same source

Bacterial Biotransformation | Structure (SMILES)
Compound metabolized | CO[C@]12C[C@@H](COC(=O)c3cncc(Br)c3)CN(C)[C@@H]1Cc1cn(C)c3cccc2c13 [NICERGOLINE]
Compound metabolized | CC(=O)OCC(=O)[C@@]1(O)[C@@H](C)C[C@H]2[C@@H]3CCC4=CC(=O)C=C[C@]4(C)[C@@]3(F)[C@@H](O)C[C@@]21C [BETAMETHASONE ACETATE]

Assay: as §1, with “WLS-370” for “WLS-170”, “ERS12561793” for “ERS12561762”
Conditions: 2 µM

Bacterial Biotransformation | Structure (SMILES)
Compound metabolized | CO[C@]12C[C@@H](COC(=O)c3cncc(Br)c3)CN(C)[C@@H]1Cc1cn(C)c3cccc2c13 [NICERGOLINE]
Compound metabolized | CC(=O)OCC(=O)[C@@]1(O)[C@@H](C)C[C@H]2[C@@H]3CCC4=CC(=O)C=C[C@]4(C)[C@@]3(F)[C@@H](O)C[C@@]21C [BETAMETHASONE ACETATE]

Conditions: human gut metagenome, 24 h, 2 µM
Remark: another data set of the same source

Bacterial Biotransformation | Structure (SMILES)
Compound NOT metabolized | CO[C@]12C[C@@H](COC(=O)c3cncc(Br)c3)CN(C)[C@@H]1Cc1cn(C)c3cccc2c13 [NICERGOLINE]
Compound metabolized | CC(=O)OCC(=O)[C@@]1(O)[C@@H](C)C[C@H]2[C@@H]3CCC4=CC(=O)C=C[C@]4(C)[C@@]3(F)[C@@H](O)C[C@@]21C [BETAMETHASONE ACETATE]

Conditions: human gut metagenome, 24 h, 2 µM
Remark: another data set of the same source

Bacterial Biotransformation | Structure (SMILES)
Compound NOT metabolized | CO[C@]12C[C@@H](COC(=O)c3cncc(Br)c3)CN(C)[C@@H]1Cc1cn(C)c3cccc2c13 [NICERGOLINE]
Compound metabolized | CC(=O)OCC(=O)[C@@]1(O)[C@@H](C)C[C@H]2[C@@H]3CCC4=CC(=O)C=C[C@]4(C)[C@@]3(F)[C@@H](O)C[C@@]21C [BETAMETHASONE ACETATE]

Assay: as §1, with “Z-020” for “WLS-170”, “rabbit” for “human”, “ERS12561819” for “ERS12561762”
Conditions: 2 µM

Bacterial Biotransformation | Structure (SMILES)
Compound NOT metabolized | CO[C@]12C[C@@H](COC(=O)c3cncc(Br)c3)CN(C)[C@@H]1Cc1cn(C)c3cccc2c13 [NICERGOLINE]
Compound metabolized | CC(=O)OCC(=O)[C@@]1(O)[C@@H](C)C[C@H]2[C@@H]3CCC4=CC(=O)C=C[C@]4(C)[C@@]3(F)[C@@H](O)C[C@@]21C [BETAMETHASONE ACETATE]

Assay: as §1, with “Z-026” for “WLS-170”, “to” for “to human gut”, “ERS12561825” for “ERS12561762”
Conditions: 2 µM

Bacterial Biotransformation | Structure (SMILES)
Compound metabolized | CO[C@]12C[C@@H](COC(=O)c3cncc(Br)c3)CN(C)[C@@H]1Cc1cn(C)c3cccc2c13 [NICERGOLINE]
Compound metabolized | CC(=O)OCC(=O)[C@@]1(O)[C@@H](C)C[C@H]2[C@@H]3CCC4=CC(=O)C=C[C@]4(C)[C@@]3(F)[C@@H](O)C[C@@]21C [BETAMETHASONE ACETATE]
